One data set relates to interferon-γ. Particulars: literature (Wolf et al.); cited from earlier work.
Data set [1] relates to ciliary neurotrophic factor. Particulars: literature (Wolf et al.); cited from earlier work.
In another data set the test system is mice. In words: Toxicity of IP human MAC in mice. It counts as in vivo. Particulars: 1.0, 2.5 or 5.0 mg IP, 5 days of observation. How it is done: Equivalent concentrations of human α2 M (native, unmodified form) were injected IP in separate animals, as a control. Each concentration of MAC or human α2 M was studied in duplicate. […] The animals were sacrificed after 5 days of observation.

For data set [2], the target named is TNF-α. Particulars: literature (Wolf et al.); read-out: KD, TNF-α binding to α2M; cited from earlier work.
The test system of data set [3] is TNF-α. Nature of the data set: Nondenaturing PAGE binding of 125I-TNF-α to α2M forms. Particulars: 125I-TNF-α 1 nM, α2M preparation 1.0 μM, 1 h at 37° C. How it is done: Nondenaturing PAGE was performed on 5% slabs.
The incubation mixtures were then subjected to nondenaturing PAGE, a method that allows recovery of noncovalent as well as covalent α2 M-cytokine complexes. Gonias et al., Ann. […] The TNF-α was detected by autoradiography or Phosphor-Imager analysis.
Crookston et al, Wollenberg et at., Amer. J. Pathol.

Another data set relates to LPS-challenged mice. In words: LPS challenge, MAC pre-treatment, survival. The data set is classed as in vivo, CD-1 female mice. Particulars: 2.5 mg IP 60 min prior to intravenous LPS.

Experimental for LPS-challenged mice: Survival curves for LPS-challenged mice, with or without MAC pre-treatment.CD-5 female mice were injected EP with 2.5 mg MAC (.box-solid.) or an equivalent volume of PBS (.circle-solid.). After 60 min, the mice were anesthetized and 57 mg/kg LPS were injected intravenously. The mice were monitored for up to 5 days and then sacrificed. Survival data are presented in panel a. In panel b, mice were injected IP with 2.0 mg MAC (Δ), 1.0 mg MAC (.smallcircle.), or 2.5 mg of native human α2 M (.quadrature.). LPS was injected 60 min later.
CD-1 female mice were obtained from Charles River Breeding Laboratories. Animals were kept on a 12:12 h dark-light cycle. Mice were anesthetized with diethyl ether prior to intravenous injections of LPS. All animals were observed on a continuous basis. Those entering a moribund condition were euthanized by cervical dislocation under anesthesia.

For the molecule “native human α2 M: α2-macroglobulin purified from human plasma, native unmodified form”, in the data set on interferon-γ, the “binding of interferon-γ to α2M” value was “do not bind”. Moreover, the “binding of ciliary neurotrophic factor to α2M” value in data set [1] was “do not bind”. For the same molecule, in the data set with mice, the “tolerability (neurologic status, respiratory rate, eating and drinking, general behavior)” value is recorded as “without outward changes in physiology”. Moreover, the dissociation constant Kd (commonly the free concentration of one partner at which half of the binding sites on the other are occupied at equilibrium, for simple one-to-one binding) on TNF-α [2] is 5 to 10 µM. Besides, the “binding of 125I-TNF-α (nondenaturing PAGE)” value with TNF-α [3] is listed as “not detected”. In addition, the “animals that died within 24 h (deaths/total)” value with LPS-challenged mice was 4/4.

B1: native murine α2 M: α2-macroglobulin purified from the plasma of CD-1 female mice, native form (protein, UniProt Q61838 25-1495, looked up)
Pregnancy zone protein: ATAKPQYVVLVPSEVYSGVPEKACVSLNHVNETVMLSLTLEYAMQQTKLLTDQAVDKDSFYCSPFTISGSPLPYTFITVEIKGPTQRFIKKKSIQIIKAESPVFVQTDKPIYKPGQIVKFRVVSVDISFRPLNETFPVVYIETPKRNRIFQWQNIHLAGGLHQLSFPLSVEPALGIYKVVVQKDSGKKIEHSFEVKEYVLPKFEVIIKMQKTMAFLEEELPITACGVYTYGKPVPGLVTLRVCRKYSRYRSTCHNQNSMSICEEFSQQADDKGCFRQVVKTKVFQLRQKGHDMKIEVEAKIKEEGTGIELTGIGSCEIANALSKLKFTKVNTNYRPGLPFSGQVLLVDEKGKPIPNKNITSVVSPLGYLSIFTTDEHGLANISIDTSNFTAPFLRVVVTYKQNHVCYDNWWLDEFHTQADHSATLVFSPSQSYIQLELVFGTLACGQTQEIRIHYLLNEDIMKNEKDLTFYYLIKARGSIFNLGSHVLSLEQGNMKGVFSLPIQVEPGMAPEAQLLIYAILPNEELVADAQNFEIEKCFANKVNLSFPSAQSLPASDTHLKVKAAPLSLCALTAVDQSVLLLKPEAKLSPQSIYNLLPGKTVQGAFFGVPVYKDHENCISGEDITHNGIVYTPKHSLGDNDAHSIFQSVGINIFTNSKIHKPRFCQEFQHYPAMGGVAPQALAVAASGPGSSFRAMGVPMMGLDYSDEINQVVEVRETVRKYFPETWIWDLVPLDVSGDGELAVKVPDTITEWKASAFCLSGTTGLGLSSTISLQAFQPFFLELTLPYSVVRGEAFTLKATVLNYMSHCIQIRVDLEISPDFLAVPVGGHENSHCICGNERKTVSWAVTPKSLGEVNFTATAEALQSPELCGNKLTEVPALVHKDTVVKSVIVEPEGIEKEQTYNTLLCPQDTELQDNWSLELPPNVVEGSARATHSVLGDILGSAMQNLQNLLQMPYGCGEQNMVLFVPNIYVLNYLNETQQLTEAIKSKAINYLISGYQRQLNYQHSDGSYSTFGNHGGGNTPGNTWLTAFVLKAFAQAQSHIFIEKTHITNAFNWLSMKQKENGCFQQSGYLLNNAMKGGVDDEVTLSAYITIALLEMPLPVTHSAVRNALFCLETAWASISQSQESHVYTKALLAYAFALAGNKAKRSELLESLNKDAVKEEDSLHWQRPGDVQKVKALSFYQPRAPSAEVEMTAYVLLAYLTSESSRPTRDLSSSDLSTASKIVKWISKQQNSHGGFSSTQDTVVALQALSKYGAATFTRSQKEVLVTIESSGTFSKTFHVNSGNRLLLQEVRLPDLPGNYVTKGSGSGCVYLQTSLKYNILPVADGKAPFALQVNTLPLNFDKAGDHRTFQIRINVSYTGERPSSNMVIVDVKMVSGFIPMKPSVKKLQDQPNIQRTEVNTNHVLIYIEKLTNQTLGFSFAVEQDIPVKNLKPAPIKVYDYYETDEFTVEEYSAPFSDGSEQGNA
Regarding B1, the “binding of 125I-TNF-α (nondenaturing PAGE)” value with TNF-α [3] is listed as “the level of binding was low”.

(Values after patent US5902787A, “Chemically modified a-macroglobulins, methods of making, and methods of using the same in anti-cytokine therapy” (The University of Virginia Patent Foundation, priority 1997, dated 1999).)
